Measured values: the Kinase Knowledgebase extract (Sharma et al. 2016)

Assays:
MAPK14 (human) = MAPK14 (human) (UniProt Q16539); assay: Inhibition of LPS Induced TNF-alpha Release in Human PBMC
MAPK14 = MAPK14 (UniProt Q16539); assay: Inhibition of MAPK14 Kinase Activity
MAPK14 (Balb/c mice) = assay: Animal Model; conditions: dose or concentration not given here

Chain of MAPK14 (Q16539 whole entry, looked up): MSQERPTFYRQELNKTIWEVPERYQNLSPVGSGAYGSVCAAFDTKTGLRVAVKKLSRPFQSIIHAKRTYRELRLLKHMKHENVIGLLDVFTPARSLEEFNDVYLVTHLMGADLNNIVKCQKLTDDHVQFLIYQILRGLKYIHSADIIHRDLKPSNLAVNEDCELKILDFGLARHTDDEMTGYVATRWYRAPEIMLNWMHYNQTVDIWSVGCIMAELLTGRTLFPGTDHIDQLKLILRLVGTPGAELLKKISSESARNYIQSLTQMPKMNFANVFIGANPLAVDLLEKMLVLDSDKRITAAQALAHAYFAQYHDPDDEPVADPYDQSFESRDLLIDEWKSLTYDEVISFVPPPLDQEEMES
Chain of MAPK14 (human) (Q16539 whole entry, looked up): as above

| SMILES | IC50 (MAPK14 (human)) | IC50 (MAPK14) | inhibition (MAPK14 (Balb/c mice)) |
| --- | --- | --- | --- |
| COc1ccc(C(=O)Nc2cc(NC(=O)c3cccc(N(C)C)c3)ccc2C)c(OC)c1 | > 50000 nM | – | – |
| Cc1ccc(NC(=O)c2cc(F)cc(N3CCOCC3)c2)cc1NC(=O)c1ccc(OCc2ccncc2)cc1 | – | 17 nM | – |
| Cc1ccc(NC(=O)c2cccc(N3CCOCC3)c2)cc1NC(=O)c1ccc(OCc2cccnc2)cc1 | – | 95 nM | – |
| Cc1ccc(NC(=O)c2cc(F)cc(N3CCOCC3)c2)cc1NC(=O)c1ccc(OCc2ccccn2)cc1 | – | 64 nM | – |
| Cc1ccc(NC(=O)c2cccc(N(C)C)c2)cc1NC(=O)c1ccc(O)cc1 | > 50000 nM | – | – |
| Cc1ccc(NC(=O)c2cccc(N3CCOCC3)c2)cc1NC(=O)c1ccc(OCc2ccccc2)cc1 | – | 37 nM | – |
| Cc1nc(COc2ccc(C(=O)Nc3cc(NC(=O)c4cccc(N5CCOCC5)c4)ccc3C)cc2)cs1 | – | 28 nM | – |
| Cc1nc(COc2ccc(C(=O)Nc3cc(NC(=O)c4cc(F)cc(N5CCOCC5)c4)ccc3C)cc2)cs1 | – | 97 nM | 0% |
| Cc1ccc(NC(=O)c2cc(F)cc(N3CCOCC3)c2)cc1NC(=O)c1ccc(OCc2cscn2)cc1 | – | 16 nM | – |
| COc1ccc(C(=O)Nc2cc(NC(=O)c3cccc(N(C)C)c3)ccc2C)cc1 | > 50000 nM | – | – |
| Cc1ccc(NC(=O)c2cccc(N3CCOCC3)c2)cc1NC(=O)c1ccc(OCc2ccncc2)cc1 | – | 22 nM | – |
